Each structure is given as a SMILES string.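 How tested: cells in 96-well plates exposed to compound for 48 hours at five concentrations. The concentration for 50% growth inhibition is given as GI50. TGI: total growth inhibition.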

This experiment relates to MDA-MB-468 breast. Nature of the experiment: inhibition of tumour cell growth, NCI panel, 48 h.
For `NC1CCN(c2nc(Nc3cccc(C(F)(F)F)c3)c3c(=O)[nH]ccc3n2)CC1`, the GI50 is 1.49 µM and the TGI was 2.98 µM.
As to `Cn1c(=O)c(Oc2ccccc2F)cc2cnc(NC3CCOCC3)nc21`, the GI50 is > 25 µM and the TGI is > 25 µM.
As for `CCN1C(=S)N(CC)C2C1NC(=S)N2/N=C/C=C/c1ccccc1` (stereo not drawn), the GI50 was 0.458 µM and the TGI is 4.19 µM.
The corresponding values for `CC(C)c1ccc(C(=O)Nc2sc3c(c2C#N)CCC(=O)C3)cc1` are 0.389 µM and 2.4 µM.
Take `O=[N+]([O-])c1ccc(N/N=C/c2c(O)ccc3ccccc23)nc1`: the GI50 was 4.47 µM and the TGI is 49.4 µM.
The like results for `COc1ccc(-c2cc(/C=C3\C(=O)Nc4ccc(Cl)cc43)[nH]n2)cc1` were, in that order, 3.6 µM and 13.5 µM.
The like results for `O=C(c1ccc2ncc(-c3nc(NC4CC4)ncc3F)n2c1)N1CCOCC1` were, in that order, 1.79 µM and 4.34 µM.
With `Cc1cc(CNC(=O)OCc2ccccc2)c(C)c2c1Oc1ccccc1O2`, the GI50 is 95.6 µM and the TGI was > 100 µM.
The like results for `O=c1nc(Nc2cccc(Cl)c2)oc2cc(Cl)oc(=O)c12` were, in that order, 2.44 µM and 6.75 µM.
For `CC/C=C\C[C@H](O)C/C=C1/C(=O)C=C[C@@H]1C/C=C\CCCC(=O)N(C)C`, the GI50 is 1.43 µM and the TGI worked out at 3.38 µM.
The corresponding values for `COC(=O)c1c2c(c(C)[n+]([O-])c1C)C(=O)C=C(NCc1ccc(F)c(F)c1)C2=O` are 0.242 µM and 0.705 µM.
The corresponding values for `Clc1ccc2[nH]cc(-c3nc(-c4c[nH]c5ncccc45)cs3)c2c1` are 2.62 µM and 9.41 µM.
The like results for `ClC(Cl)c1nc(-c2cccnc2)n2nc(-c3ccccc3)cc2n1` were, in that order, 0.247 µM and 0.793 µM.
For `N=C(N=C(N)N)N1CCN(c2ccncc2)CC1`, the GI50 was > 1000 µM and the TGI is > 1000 µM.
In the case of `CCOC(=O)c1[nH]c(-c2ccc(Cl)cc2)cc1-c1cccnc1`, the GI50 is 0.493 µM and the TGI is 4.33 µM.
`Nc1nnc2cc(Cl)ccc2n1`: the GI50 was > 100 µM and the TGI was > 100 µM.
In the case of `Cc1cc(C)c(C[N+](C)(C)C)c(C)c1C`, the GI50 was 0.495 µM and the TGI was determined as 9.2 µM.
The like results for `CC(=O)[C@@H]1CCC=C2CC[C@]3(C)[C@@H](CC[C@@H]4[C@@]5(C)CCCNC(C)(C)[C@@H]5CC[C@]43C)[C@H]21` were, in that order, 1.78 µM and 3.43 µM.
The like results for `Cc1nc2sc(C(=O)Nc3cccc4ccccc34)c(N)c2cc1C(=O)c1ccccc1` were, in that order, 1.66 µM and > 50 µM.
The corresponding values for `COc1ccc(/C=C/c2nc(NCCCN(C)C)c3ccccc3n2)cc1` are 1.31 µM and 2.64 µM.
Regarding `NC(=O)c1cc(Br)cc(C2CCCCC2)c1O`, the GI50 is 13.8 µM and the TGI stood at 29.2 µM.
The corresponding values for `OCC1OC(n2ccc3c(NO)ncnc32)C(O)C1O` (stereo not drawn) are 0.122 µM and 0.777 µM.
For `NNc1cccc(/C=C/c2ccccc2)cc1=O`, the GI50 is 8.46 µM and the TGI turned out to be 90.7 µM.
The like results for `COCCOC(=O)NC(=O)Nc1ccc(/C(=N/O)c2ccc(Cl)cc2)cc1` were, in that order, 0.0813 µM and 0.616 µM.
The corresponding values for `O=C(Nc1ccc(F)cc1)c1c(NC(=O)C(F)(F)F)sc2c1CCCCC2` are 1.04 µM and 4.85 µM.
The corresponding values for `C=C1C(=O)O[C@H]2[C@H]1CC/C(COC(=O)NCc1ccc(Cn3c(=O)sn(CCCCl)c3=O)cc1)=C\CC[C@@]1(C)O[C@@H]21` are 1.53 µM and 4.33 µM.
In the case of `CN(C)CCCN1c2nc3ccccc3cc2Sc2cc3ccccc3nc21`, the GI50 is 1.65 µM and the TGI worked out at 4.44 µM.
The like results for `N#Cc1cnc2cc(OC[C@@H](O)CO)c(NC(=O)CC3CSSC3)cc2c1Nc1ccc(OCc2cccc(F)c2)c(Cl)c1` were, in that order, 0.0698 µM and 0.155 µM.
The like results for `COc1cc(/C=C\[N+](=O)[O-])ccc1OCc1ccccc1` were, in that order, 1.47 µM and 3.26 µM.
The like results for `COc1ccc2c(Nc3ccc(NS(C)(=O)=O)cc3)c3ccccc3nc2c1` were, in that order, 0.414 µM and 1.74 µM.
For `CC1=C[C@H]2c3c(c(O)c(O)c4oc5ccccc5c(=O)c34)[C@H](c3cc(O)c(O)c4oc5ccccc5c(=O)c34)[C@H]2C(C)(C)C1`, the GI50 is 2.02 µM and the TGI worked out at 6.04 µM.
For `CCOC(=O)C(=Cc1ccccc1[N+](=O)[O-])C(=O)OCC`, the GI50 was 1.53 µM and the TGI is 4.68 µM.
The like results for `CCCCCCCCCCN(CCCCCCCCCC)CC(=O)c1ccc2cc(Br)c3ccccc3c2c1` were, in that order, 1.7 µM and 3.14 µM.
The corresponding values for `COC1CC2C=C(C)/C=C/C=C/C(=O)NC(c3ccccc3)C/C=C/CCC(O)CC(=O)C2=C1O` (stereo not drawn) are 0.283 µM and 1.24 µM.

For the origin of these results see PubChem BioAssay (NCI).
